Results published in publication PMC10386886, “First-in-class multifunctional TYMS nonclassical antifolate inhibitor with potent in vivo activity that prolongs survival” (JCI Insight, 2023).

Experiments:
[1] = target: T1, purified human TYMS (Homo sapiens, UniProt P04818); assay: Competitive drug displacement assay (tritium TYMS assay); assay type: biochemical
T1 construct: 6xHis (N); made in house; host or cells: E. coli BL21 (DE3), vector pQE80L-hTYMS
Description: For these experiments the TYMS protein was first incubated with each drug, and the reaction was then initiated by addition of 5,10-mTHF and dUMP using different concentrations of either 5,10-mTHF or dUMP to change the substrate/drug ratio. If there was competition between one of the substrates and the drug for the same binding site, then increasing the substrate concentration would displace more of the prebound drug and shift the equilibrium toward the enzyme/substrate complex, thus allowing the conversion of dUMP to proceed (Figure 7A). […]
all components including 2 µg TYMS protein to show the range of the assay, the background signal, and the dependence on 5,10-mTHF (Supplemental Figure 2C). To determine the signal from the [5-3H]dUMP tracer used in each reaction the same amount of the dUMP substrate with the [5-3H]dUMP tracer accounting for 0.06% of the final dUMP concentration was added directly to 5 mL of ultima gold liquid scintillation cocktail (Supplemental Figure 2C).
All reactions were performed in biological duplicate and technical duplicate. Results were analyzed using GraphPad Prism 9.
Competitive drug displacement assay
The tritium based TYMS catalytic activity assay was modified to determine if TYMS inhibition from 19-S, 19-S5, and 19-S7 was the result of competitive binding with either the dUMP substrate or the 5,10-mTHF cofactor. The competitive drug displacement assay utilized the standard reaction conditions for the tritium-based TYMS catalytic activity assay including 40 µM dUMP (Sigma Aldrich, Cat # D3876) with the [5- 3H]dUMP tracer (ViTrax, VT122) accounting for 0.06% of the final dUMP concentration and 100 µM 5,10- methylene tetrahydrofolate (defined as 1x dUMP and 1x 5,10-mTHF). Concentrations of total dUMP and 5,10- mTHF were then changed relative to these 1x concentrations to concisely indicate the changes in either the substrate or cofactor concentration. The highest 5x concentration of 5,10 - […]
5x concentration of total dUMP was not limited by solubility, although increases were performed in the same increments as 5,10-mTHF for comparison and 0.06% of the [5-3H]dUMP tracer was maintained at all concentrations. The remaining components in each 200 µL reaction were consistent in all reactions and included 2 µg of purified human TYMS in 50 mM KH2PO4 (Sigma Aldrich, Cat # P0662) and 100 mM β- mercaptoethanol (Sigma Aldrich, Cat # M7522). Control antifolate inhibitor PEM (Sigma Aldrich, Cat # PHR1596) was performed for reference of a TYMS specific classical antifolate and to […]
Human TYMS and DHFR preparation
Human Thymidylate Synthase (hTYMS) and human Dihydrofolate Reductase (hDHFR) were both expressed in BL21 (DE3) E. coli cells, using a standard BL21 transformation protocol, with the expression vector pQE80L-hTYMS (gift from Maria Paola Costi, University of Modena and Reggio Emilio, Italy) and pET100/D- TOPO (Invitrogen, Cat # K10001), respectively. Both vectors contained an N-terminal 6x Histidine tag attached to either hTYMS or hDHFR. After bacterial transformation, cells

[2] = target: T2, DHFR (Homo sapiens, UniProt P00374); assay: Absorbance-based DHFR activity assay; assay type: biochemical; conditions: Figure 6D
T2 construct: purchased Sigma D6566 (kit CS0340)
T2 sequence (P00374 1-187): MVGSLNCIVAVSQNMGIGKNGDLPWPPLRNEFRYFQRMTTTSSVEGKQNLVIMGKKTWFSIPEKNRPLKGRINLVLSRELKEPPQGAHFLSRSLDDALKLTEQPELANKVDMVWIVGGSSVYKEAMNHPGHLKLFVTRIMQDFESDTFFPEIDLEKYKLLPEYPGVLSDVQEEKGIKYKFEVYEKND
Description: DHFR assay kit (Sigma Aldrich, Cat # CS0340) as described by the manufacturer. 0.1-unit DHFR
analogues or control drugs, 6 μL NADPH Cat # N6505 solution and 5 μl of dihydrofolic acid (DHFR
substrate) (Sigma, Cat # D7006). The reaction was then read on the spectrophotometer at 340 nm at
22 °C every 15 seconds for 2.5 minutes.

[3] = in vivo; conditions: NSG, mouse, po
Description: Maximum tolerated dose (MTD)
experiment) or 5, 10, 25 or 50 mg/kg of 5-FU daily during 5 consecutive days. After 3 treatment cycles,
animals rested (no treatment) for one more week before euthanasia. Body weight and physical status
of all mice were closely monitored. Tissues were collected and fixed in alcoholic formalin to test for
daily during 5 consecutive days for 3 weeks. After 3 treatment cycles, animals rested (no treatment) for
one more week before euthanasia. Body weight and physical status of all mice were closely monitored.
Tissues were collected and fixed in alcoholic formalin to test for toxicity.
Specimens were fixed in alcoholic formalin for 48h and then transferred to 70% ethanol, processed and
embedded in paraffin. Tissues were serially sectioned and stained by conventional H&E. Slides were

[4] = target: T1, purified human TYMS; assay: Tritium-based TYMS catalytic activity assay; assay type: biochemical
Description: To determine the inhibition of TYMS activity, we utilized a tritium-based TYMS catalytic assay (Figure 1A) to quantify the conversion of dUMP, which is proportional to TYMS activity ([33]). The assay was based on a previously published protocol ([33]) and modified to determine the amount of purified human TYMS (hTYMS) to be used in the conversion of dUMP to dTMP. […]
Tritium based TYMS catalytic activity assay
The catalytic activity of TYMS was determined by measuring the release of [3H] from [5-3H]dUMP (ViTrax, Cat # VT122) resulting from the conversion of dUMP to dTMP as previously described (2, 3).
The reaction conditions were optimized to determine the amount of TYMS protein needed to establish […]
reactions performed without TYMS or without the 5,10-methylene tetrahydrofolate (5,10-mTHF) cofactor (Supplemental Figure 2 and Supplemental methods). Reactions were performed in 50 mM KH2PO4 (Sigma Aldrich, Cat # P0662) at pH 7.2 using 2 µg of purified human TYMS. Reactions were performed in a final volume of 200 µL with 100 mM β-mercaptoethanol (Sigma Aldrich, Cat # M7522), 40 µM dUMP (Sigma Aldrich, Cat # D3876), 100 µM 5,10-mTHF, and the [5-3H]dUMP tracer (ViTrax, Cat # VT122) accounting for 0.06% of the final dUMP concentration in the reaction. The 5,10-mTHF used in the reaction was separately generated from tetrahydrofolic acid (Sigma Aldrich, Cat # T3125) by dissolving the solid in 10 mM KH2PO4 with 143 mM β-mercaptoethanol (1:100 from 14.3 M pure liquid), and 6.35 mM formaldehyde (Sigma Aldrich, Cat # 47608) to yield a 100 mM stock solution of 5,10- mTHF. Reactions were initiated by the addition of the dUMP substrate and 5,10-mTHF cofactor, then incubated at 37 °C for 30 minutes. […]
before the reaction was initiated by the addition of the dUMP substrate and 5,10-mTHF cofactor.
Reactions were terminated by the addition of 100 µL of ice-cold 20% trichloroacetic acid (Sigma Aldrich, Cat # T6399), then excess [5-3H]dUMP was removed by the addition of 200 µL of an albumin-coated activated charcoal solution. The albumin-coated activated charcoal solution was prepared by mixing 10 g of acid- washed activated dextran coated charcoal (Sigma Aldrich, Cat # C6241) with 2.5 g of bovine albumin (Sigma Aldrich, Cat # A1933) in 100 mL of H2O. The suspension was incubated at room temperature for 30 minutes and then centrifuged for 30 minutes at 10,000 x g. Then 150 µL of the supernatant was collected and added to 5 mL of ultima gold liquid scintillation cocktail (Perkin Elmer, Cat # 6013326, lot: 77-19085), and scintillation measurements were perform using a liquid scintillation counter (Beckman Coulter LS6500) to determine [3H]H2O levels in each sample. For all experiments, positive control reactions were performed with no drug representing 100% TYMS activity, and negative

[5] = TS preincubated with drug, Figure 7

T1 sequence (P04818 whole entry): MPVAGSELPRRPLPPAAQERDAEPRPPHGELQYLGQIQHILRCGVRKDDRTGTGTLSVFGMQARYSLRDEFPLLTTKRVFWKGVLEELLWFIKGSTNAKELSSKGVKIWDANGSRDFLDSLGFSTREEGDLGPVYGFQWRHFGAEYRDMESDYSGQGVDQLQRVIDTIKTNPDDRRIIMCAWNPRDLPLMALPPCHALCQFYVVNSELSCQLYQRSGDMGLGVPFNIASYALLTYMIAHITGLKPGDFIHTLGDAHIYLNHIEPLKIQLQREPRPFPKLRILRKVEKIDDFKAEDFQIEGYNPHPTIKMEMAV

In the case of `CCc1nc(N)nc(N)c1-c1ccc(N(C)Cc2ccc3c(c2)OCO3)c([N+](=O)[O-])c1` [Compound 19-S7], the “Mechanism of TYMS inhibition” value [1] is reported as “blocking the folate-binding site”, the “dUMP conversion with increasing 5,10-mTHF concentration” value [1, 5] is reported as “increased the amount of dUMP conversion” and the “dUMP conversion with increasing dUMP concentration” value [1, 5] is reported as “the amount of dUMP conversion did not increase”. For the same compound, the “DHFR activity, comparison at reduced drug concentrations” value [2] was “potent TYMS and DHFR inhibition”, the MTD at 3 weeks [3] was 25 mg/kg and the “TS activity, screen of 19-S series analogs” value ([4]; 250 μM, Figure 6A) was “inhibited TYMS activity”. The “TS activity, comparison at decreasing drug concentrations” value ([4]; Figure 6C) was “greater TYMS inhibition than both MTX and PEM”.
